In brackets after ≈: the same amount, converted by molar mass. Read-outs that look alike come from different tables or passages of the source. *1 amine or outer side, *2 acyl side, *3 side chain or, on linkers, in order; H or OH if unused. Where a SMILES comes first, the peptide text is derived from it. Bridges are numbered along the chain shown (N, C = ends). [ ]: non-standard residue; d: D form. The star is where a group is joined. Phe(3,5-F2) = N[C@@H](Cc1cc(F)cc(F)c1)C(=O)O; NH(1-Me-indolin-5-yl) = CN1CCc2cc(N*)ccc21; Morpholine(3S-CO) = O=C(O)[C@@H]1COCCN1; Pro(4S-Me) = C[C@@H]1CN[C@H](C(=O)O)C1; NH(4-Cl-2-F-phenyl) = Fc1cc(Cl)ccc1N*; Pro(4R-Me) = C[C@H]1CN[C@H](C(=O)O)C1; Hyp = O=C(O)[C@@H]1C[C@@H](O)CN1; NH(4-Et-phenyl) = CCc1ccc(N*)cc1; NMeT = CN[C@H](C(=O)O)[C@@H](C)O; aThr = C[C@H](O)[C@H](N)C(=O)O; Pip = O=C(O)[C@@H]1CCCCN1; CO = O=C([*:1])[*:2]
Columns and labels:
Format in all cases: cell-based
[1] = test system: Staphylococcus aureus, ATCC 29213; experiment: Minimal inhibitory concentration assay (microbroth dilution); conditions: ATCC29213, read-out: Minimal Inhibitory Concentrations S. aureus ATCC 29213
Method in brief: (§1)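 Antibacterial activity was measured by CLSI-standard microdilution in broth, using overnight aerobic incubation at 37 °C. Growth inhibition was scored visually, and MIC taken as the lowest concentration preventing growth.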

[2] = test system: Staphylococcus aureus, NRS70; experiment: as above
Method in brief: as §1

[3] = test system: Bacillus subtilis, ATCC 23857; experiment: as above
Method in brief: as §1

[4] = Cytotoxicity assay (CellTiter-Glo cell viability, 72 hours); conditions: African green monkey
Method in brief: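 Vero cells, 5000/well, grown overnight at 37° C, 5% CO2 in DMEM with 10% FBS, then exposed to serial compound dilutions or DMSO for 72 hours. Viability read by CellTiter-Glo luminescence. IC50 from duplicate wells, reported as range over two independent experiments.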

[5] = test system: Streptococcus pyogenes, ATCC 700294; experiment: Minimal inhibitory concentration assay (microbroth dilution)
Method in brief: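 CLSI broth microdilution: two-fold serial compound dilutions in appropriate broth, inoculated and incubated aerobically overnight at 37° C. MIC read visually as lowest concentration preventing bacterial growth.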

[6] = Staphylococcus aureus, NRS70; read-out: Minimal Inhibitory Concentrations S. aureus NRS70
[7] = Bacillus subtilis, ATCC23857; read-out: Minimal Inhibitory Concentrations B. subtilis ATCC 23857
[8] = Streptococcus pyogenes, ATCC700294; read-out: Minimal Inhibitory Concentrations S. pyogenes ATCC 700294

SMILES | MIC [1] | MIC [2, 6] | MIC [3, 7] | IC50 at 72 h [4] | MIC [5, 8] | MIC ([2]; Staphylococcus aureus, NRS70, read-out: Minimal Inhibitory Concentrations S. aureus NRS70) | MIC ([3]; Bacillus subtilis, ATCC23857, read-out: Minimal Inhibitory Concentrations B. subtilis ATCC 23857) | IC50 at 72 h ([4]; Vero cells, 72 hours, growth inhibition, read-out: Cytotoxicity IC50) | MIC ([5]; Streptococcus pyogenes, ATCC700294, read-out: Minimal Inhibitory Concentrations S. pyogenes ATCC 700294)
CCc1ccc(NC(=O)N[C@@H](Cc2cc(F)cc(F)c2)C(=O)N[C@@H]2C(=O)N3CCC[C@H]3C(=O)N(C)[C@@H]([C@@H](C)O)C(=O)N[C@@H](C)C(=O)N3C[C@@H](C)C[C@H]3C(=O)O[C@H]2C)cc1 [Compound 37, (S)-3-(3,5-difluorophenyl)-2-(3-(4-ethylphenyl)ureido)-N-((2S,6S,9S,11aS,17S,18S,20aS)-9-((R)-1-hydroxyethyl)-2,6,10,18-tetramethyl-5,8,11,16,20-pentaoxohexadecahydro-1H,5H,16H-dipyrrolo[2,1-c:2′,1′-l][1]oxa[4,7,10,13]tetraazacyclohexadecin-17-yl)propanamide] ({NH(4-Et-phenyl)-CO}-[Phe(3,5-F2)][aThr]P[NMeT]A[Pro(4S-Me)]; ester 2-C) | 0.1 µM (≈ 0.0826 µg/mL) | 0.1 µM (≈ 0.0826 µg/mL) | 0.05 µM (≈ 0.0413 µg/mL) | 33.8 ± 1.6 µM | 0.1 µM (≈ 0.0826 µg/mL) | – | – | – | –
C[C@@H]1C[C@H]2C(=O)O[C@@H](C)[C@H](NC(=O)[C@H](Cc3cc(F)cc(F)c3)NC(=O)Nc3ccc4c(c3)CCN4C)C(=O)N3CCC[C@H]3C(=O)N3CCCC[C@H]3C(=O)N[C@@H](C)C(=O)N2C1 [Compound 310, (S)-3-(3,5-difluorophenyl)-2-(3-(1-methylindolin-5-yl)ureido)-N-((2R,6S,8aS,14aS,20S,21S,23aS)-2,6,21-trimethyl-5,8,14,19,23-pentaoxooctadecahydro-1H,5H,14H,19H-pyrido[2,1-i]dipyrrolo[2,1-c:2′,1′-l][1]oxa[4,7,10,13]tetraazacyclo-hexadecin-20-yl)propanamide] ({NH(1-Me-indolin-5-yl)-CO}-[Phe(3,5-F2)][aThr]P[Pip]A[Pro(4R-Me)]; ester 2-C) | 0.078 µM (≈ 0.0662 µg/mL) | – | – | – | – | 0.156 µM (≈ 0.132 µg/mL) | 0.078 µM (≈ 0.0662 µg/mL) | 0.4 ± 0.01 µM | 0.156 µM (≈ 0.132 µg/mL)
C[C@@H]1C[C@H]2C(=O)O[C@@H](C)[C@H](NC(=O)[C@H](Cc3cc(F)cc(F)c3)NC(=O)Nc3ccc(Cl)cc3F)C(=O)N3C[C@H](O)C[C@H]3C(=O)N3CCOC[C@H]3C(=O)N[C@@H](C)C(=O)N2C1 [Compound 316, (S)-2-(3-(4-chloro-2-fluorophenyl)ureido)-3-(3,5-difluorophenyl)-N-((6aS,8R,12S,13S,15aS,17R,21S,23aS)-8-hydroxy-13,17,21-trimethyl-6,11,15,20,23-pentaoxooctadecahydro-6H,11H,15H-[1,4]oxazino[3,4-i]dipyrrolo[2,1-c:2′,1′-l][1]oxa[4,7,10,13]tetraazacyclo-hexadecin-12-yl)propanamide] ({NH(4-Cl-2-F-phenyl)-CO}-[Phe(3,5-F2)][aThr][Hyp][Morpholine(3S-CO)]A[Pro(4R-Me)]; ester 2-C) | 0.078 µM (≈ 0.0674 µg/mL) | 0.078 µM (≈ 0.0674 µg/mL) | 0.313 µM (≈ 0.271 µg/mL) | > 100 µM | < 0.02 µM | – | – | – | –
CCc1ccc(NC(=O)N[C@@H](Cc2cc(F)cc(F)c2)C(=O)N[C@@H]2C(=O)N3C[C@H](O)C[C@H]3C(=O)N3CCOC[C@H]3C(=O)N[C@@H](C)C(=O)N3C[C@H](C)C[C@H]3C(=O)O[C@H]2C)cc1 [Compound 320, (S)-3-(3,5-difluorophenyl)-2-(3-(4-ethylphenyl)ureido)-N-((6aS,8R,12S,13S,15aS,17R,21S,23aS)-8-hydroxy-13,17,21-trimethyl-6,11,15,20,23-pentaoxooctadecahydro-6H,11H,15H-[1,4]oxazino[3,4-i]dipyrrolo[2,1-c:2′,1′-l][1]oxa[4,7,10,13]-tetraazacyclohexadecin-12-yl)propanamide] ({NH(4-Et-phenyl)-CO}-[Phe(3,5-F2)][aThr][Hyp][Morpholine(3S-CO)]A[Pro(4R-Me)]; ester 2-C) | 0.156 µM (≈ 0.131 µg/mL) | 0.156 µM (≈ 0.131 µg/mL) | 0.625 µM (≈ 0.525 µg/mL) | > 100 µM | 0.039 µM (≈ 0.0328 µg/mL) | – | – | – | –

From patent US10457707B2, “Substituted urea depsipeptide analogs as activators of the CLPP endopeptidase” (priority 2015, dated 2019)
